This note sets out measurements from patent US9404081B2, “Pyruvate kinase activators for use in therapy” (AGIOS PHARMACEUTICALS, INC., priority 2011, dated 2016).

Common to all, as to type: biochemical
One assay deals with PKR wt (Homo sapiens, UniProt P30613). The assay can be described thus: PKR WT Single Point Percent Activation Assay. The gist of the method: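 Single concentration of 1 μM compound preincubated 60 min at RT with PKR wt (100 ng/well) in Tris pH 7.5, KCl, MgCl2, DTT, BSA. Reaction started with ADP (0.48 mM final) with PEP 0.15 mM, coupled LDH/NADH (180 μM), read at OD340, room temperature; given as percent activation.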
Sequence of PKR wt (P30613 whole entry): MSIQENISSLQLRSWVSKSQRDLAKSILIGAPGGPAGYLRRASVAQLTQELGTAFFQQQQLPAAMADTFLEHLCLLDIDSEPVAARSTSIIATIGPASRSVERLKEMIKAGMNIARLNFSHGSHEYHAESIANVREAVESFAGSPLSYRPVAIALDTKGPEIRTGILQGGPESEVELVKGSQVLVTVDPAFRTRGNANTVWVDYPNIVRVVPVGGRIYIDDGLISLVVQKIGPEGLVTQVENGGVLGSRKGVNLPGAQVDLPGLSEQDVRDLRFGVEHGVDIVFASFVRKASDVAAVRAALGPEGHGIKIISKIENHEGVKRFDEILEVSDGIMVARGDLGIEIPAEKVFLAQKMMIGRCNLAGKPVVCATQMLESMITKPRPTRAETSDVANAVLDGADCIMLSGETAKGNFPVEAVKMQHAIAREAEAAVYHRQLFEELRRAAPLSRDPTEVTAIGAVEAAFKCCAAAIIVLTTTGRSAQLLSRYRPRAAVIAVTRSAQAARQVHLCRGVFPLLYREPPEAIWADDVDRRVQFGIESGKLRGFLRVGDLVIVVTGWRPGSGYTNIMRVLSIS

The target in another assay is PKR R510Q (Homo sapiens, UniProt P30613, R510Q). The assay can be described thus: PKR R510Q Single Point Percent Activation Assay. The conditions noted are these: for activation at 1 µM: read-out: Act. % 510Q. The gist of the method:
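Test compound was used at a single concentration of 1 μM and preincubated 60 min at room temperature with PKR R510Q (40 ng/well). The buffer was 50 mM Tris pH 7.5, 100 mM KCl, 5 mM MgCl2, 1 mM DTT and 0.03% BSA. The reaction was started with 0.2 mM ADP and read as OD340 in an LDH-coupled system (0.11 mM PEP, 180 μM NADH).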

Another assay deals with PKR T384W (Homo sapiens, UniProt P30613, T384W). The assay can be described thus: PKR T384W Single Point Percent Activation Assay. The conditions noted are these: for activation at 1 µM: read-out: Act. % 384W. A digest of the protocol:
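Soluble PKR T384W (300 ng/well) preincubated 60 min at RT with 1 μM compound in 50 mM Tris pH 7.5, 100 mM KCl, 5 mM MgCl2, 1 mM DTT, 0.03% BSA. Started with ADP (0.08 mM); PEP 0.23 mM, LDH-coupled NADH (180 μM) consumption read at OD340, room temperature.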

The target in the next assay is PKR R532W (Homo sapiens, UniProt P30613, R532W). The assay can be described thus: PKR R532W Single Point Percent Activation Assay. Particulars: for activation at 1 µM: read-out: Act, % 532W; for Act, % 532W: % activation at 1 μM. The gist of the method: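 PKR R532W (100 ng/well) preincubated 60 min at RT with compound at 1 μM in Tris pH 7.5, KCl, MgCl2, DTT, BSA. Reaction started with ADP (0.36 mM), with PEP 0.1 mM, NADH 180 μM and LDH coupling; read at OD340, room temperature.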
Sequence of PKR R532W (P30613 whole entry R532W): as the sequence (P30613 whole entry) above, with R532W counted along it

Sequence of PKR T384W (P30613 whole entry T384W): as the sequence (P30613 whole entry) above, with T384W counted along it
Sequence of PKR R510Q (P30613 whole entry R510Q): as the sequence (P30613 whole entry) above, with R510Q counted along it

On to `C[C@@H]1CN(C(=O)c2ccc(NS(=O)(=O)c3cccc4cccnc34)cc2)C[C@H](C)N1C(=O)c1ccccn1`, for which the activation at 1 µM on PKR wt, on PKR R510Q, at PKR T384W and at PKR R532W was 101 to 500% in each case.
As to `C[C@@H]1CN(Cc2cc(F)c(F)cc2F)CCN1C(=O)c1ccc(NS(=O)(=O)c2cccc3cccnc23)cc1`, the activation at 1 µM on PKR wt, at PKR R510Q, at PKR T384W and on PKR R532W was 1 to 100% throughout.
Take `COc1ccccc1N1C[C@@H](C)N(C(=O)c2ccc(NS(=O)(=O)c3cccc4cccnc34)cc2)[C@@H](C)C1`: the activation at 1 µM on PKR wt, at PKR R510Q, on PKR T384W and at PKR R532W was 101 to 500% in each case.
In the case of `C[C@H]1CN(C(=O)c2ccc(NS(=O)(=O)c3cccc4cccnc34)cc2)CCN1C(=O)c1ccccn1`, the activation at 1 µM is 101 to 500% on PKR wt, 1 to 100% on PKR R510Q, 101 to 500% on PKR T384W and 101 to 500% at PKR R532W.
Take `CC(c1ccc(F)cc1Cl)N1CCN(C(=O)c2ccc(NS(=O)(=O)c3cccc4cccnc34)cc2)[C@H](C)C1` (stereo partly shown): the activation at 1 µM is 101 to 500% at PKR wt, 1 to 100% on PKR R510Q, 101 to 500% on PKR T384W and 101 to 500% on PKR R532W.
On to `CC(C)[C@H]1CN(C(C)c2ccc(F)cc2)CCN1C(=O)c1ccc(NS(=O)(=O)c2cccc3cccnc23)cc1` (stereo partly shown), for which the activation at 1 µM fell in the range of 101 to 500% on PKR wt, 1 to 100% at PKR R510Q, 101 to 500% at PKR T384W and 101 to 500% at PKR R532W.
On to `O=C(c1ccc(NS(=O)(=O)c2cccc3cccnc23)cc1)N1C2CCC1CN(Cc1cc(F)cc(F)c1)C2`, for which the activation at 1 µM on PKR wt, on PKR R510Q, at PKR T384W and at PKR R532W was 101 to 500% in each case.
As for `C[C@@H]1CN(C(=O)OCC2CCCO2)CCN1C(=O)c1ccc(NS(=O)(=O)c2cccc3cccnc23)cc1` (stereo partly shown), the activation at 1 µM was in the range of 101 to 500% at PKR wt, 1 to 100% on PKR R510Q, 1 to 100% on PKR T384W and 1 to 100% at PKR R532W.
For the compound `C[C@@H]1CN(C(=O)OC2CCCC2)CCN1C(=O)c1ccc(NS(=O)(=O)c2cccc3cccnc23)cc1`, the activation at 1 µM at PKR wt, on PKR R510Q, at PKR T384W and on PKR R532W was 101 to 500% in each case.
Regarding `C[C@@H]1CN(C(=O)OCCC2CCCCC2)CCN1C(=O)c1ccc(NS(=O)(=O)c2cccc3cccnc23)cc1`, the activation at 1 µM on PKR wt, at PKR R510Q, on PKR T384W and at PKR R532W was 1 to 100% in each case.
Turning to `C[C@@H]1CN(C[C@H]2CCCO2)CCN1C(=O)c1ccc(NS(=O)(=O)c2cccc3cccnc23)cc1`, the activation at 1 µM at PKR wt was 101 to 500%; on PKR R510Q, 1 to 100%; on PKR T384W, 101 to 500%; at PKR R532W, 101 to 500%.
Consider `CC1CN(Cc2cc(F)cc(F)c2)CC(C)N1C(=O)c1ccc(NS(=O)(=O)c2cccc3cccnc23)cc1` (stereo not shown), for which the activation at 1 µM on PKR wt was in the range of 1 to 100%; at PKR R510Q it was 101 to 500%; at PKR T384W, 1 to 100%; on PKR R532W, 101 to 500%.
With `C[C@@H]1CN(CC2CCCC2)CCN1C(=O)c1ccc(NS(=O)(=O)c2cccc3cccnc23)cc1`, the activation at 1 µM at PKR wt was in the range of 1 to 100%; at PKR R510Q, 1 to 100%; at PKR T384W it was 101 to 500%; on PKR R532W, 1 to 100%.
Consider `C[C@H]1CN(Cc2ccccc2F)CCN1C(=O)c1ccc(NS(=O)(=O)c2cccc3cccnc23)cc1`, for which the activation at 1 µM was in the range of 101 to 500% at PKR wt, 1 to 100% at PKR R510Q, 101 to 500% on PKR T384W and 101 to 500% at PKR R532W.
For the compound `C[C@H]1CN(Cc2ccc(F)c(F)c2F)CCN1C(=O)c1ccc(NS(=O)(=O)c2cccc3cccnc23)cc1` [drawing 87], the “Act. % WT” value on PKR wt (% activation at 1 μM) is “A (a % activation at 1 μM of from 1 to 100)”. In addition, on PKR R510Q (% activation at 1 μM), the “Act. % 510Q” value was “A (a % activation at 1 μM of from 1 to 100)”. The “Act. % 384W” value on PKR T384W (% activation at 1 μM) was “A (a % activation at 1 μM of from 1 to 100)”. In addition, the “Act, % 532W” value on PKR R532W is recorded as “B (a % activation at 1 μM of from 101 to 500)”.
For `CC(C)[C@H]1CN(Cc2cc(F)cc(F)c2)CCN1C(=O)c1ccc(NS(=O)(=O)c2cccc3cccnc23)cc1`, the activation at 1 µM at PKR wt was in the range of 1 to 100%; at PKR R510Q, 1 to 100%; at PKR T384W, 101 to 500%; at PKR R532W it was 1 to 100%.
Take `O=C(c1ccc(NS(=O)(=O)c2cccc3cccnc23)cc1)N1CCN(Cc2cc(F)cc(F)c2)c2ccccc21`: the activation at 1 µM was 101 to 500% at PKR wt, 1 to 100% at PKR R510Q, 101 to 500% at PKR T384W and 101 to 500% at PKR R532W.
Regarding `C[C@H]1CN(CC2CCCC2)CCN1C(=O)c1ccc(NS(=O)(=O)c2cccc3cccnc23)cc1`, the activation at 1 µM at PKR wt lay in the range of 101 to 500%; at PKR R510Q, 101 to 500%; at PKR T384W, 101 to 500%; at PKR R532W it was 1 to 100%.
Regarding `C[C@H]1CN(Cc2ccc(Cl)c(F)c2)CCN1C(=O)c1ccc(NS(=O)(=O)c2cccc3cccnc23)cc1`, the activation at 1 µM on PKR wt lay within 101 to 500%; at PKR R510Q it was 101 to 500%; at PKR T384W it was 1 to 100%; at PKR R532W it was 101 to 500%.
On to `CC(c1c(F)cccc1F)N1CCN(C(=O)c2ccc(NS(=O)(=O)c3cccc4cccnc34)cc2)[C@H](C)C1` (stereo partly shown), for which the activation at 1 µM on PKR wt is 1 to 100%; at PKR R510Q it was 101 to 500%; on PKR T384W it was 1 to 100%; at PKR R532W it was 1 to 100%.
On to `C[C@H]1CN(Cc2ccccc2)CCN1C(=O)c1ccc(NS(=O)(=O)c2cccc3cccnc23)cc1`, for which the activation at 1 µM on PKR wt, on PKR R510Q, at PKR T384W and at PKR R532W was 101 to 500% in each case.
Regarding `C[C@H]1CN(Cc2c(F)cc(F)cc2F)CCN1C(=O)c1ccc(NS(=O)(=O)c2cccc3cccnc23)cc1`, the activation at 1 µM fell in the range of 1 to 100% on PKR wt, 1 to 100% on PKR R510Q, 101 to 500% at PKR T384W and 101 to 500% on PKR R532W.
For the compound `O=C(c1ccc(NS(=O)(=O)c2cccc3cccnc23)cc1)N1CC2CCC(C1)N2Cc1ccc(F)cc1`, the activation at 1 µM at PKR wt was in the range of 101 to 500%; at PKR R510Q it was 101 to 500%; on PKR T384W, 1 to 100%; at PKR R532W, 1 to 100%.
As for `C[C@H]1CN(Cc2ccc(F)c(F)c2F)CCN1C(=O)c1ccc(NS(=O)(=O)c2cccc3cccnc23)cc1` [drawing 66], the activation at 1 µM on PKR wt, at PKR R510Q and on PKR T384W was 1 to 100% in each case. Besides, at PKR R532W, the “Act, % 532W” value is “A (a % activation at 1 μM of from 1 to 100)”.
Turning to `O=C1CN(Cc2cc(F)cc(F)c2)CCN1C(=O)c1ccc(NS(=O)(=O)c2cccc3cccnc23)cc1`, the activation at 1 µM on PKR wt was 101 to 500%; on PKR R510Q it was 1 to 100%; at PKR T384W, 101 to 500%; on PKR R532W it was 101 to 500%.
On to `O=C1CN(C(=O)c2ccc(NS(=O)(=O)c3cccc4cccnc34)cc2)CCN1CC1CC1`, for which the activation at 1 µM on PKR wt lay in the range of 101 to 500%; on PKR R510Q, 1 to 100%; on PKR T384W, 101 to 500%; at PKR R532W it was 1 to 100%.
Turning to `C[C@H]1CN(CC2CC2)CCN1C(=O)c1ccc(NS(=O)(=O)c2cccc3cccnc23)cc1`, the activation at 1 µM lay within 101 to 500% on PKR wt, 1 to 100% at PKR R510Q, 1 to 100% at PKR T384W and 101 to 500% at PKR R532W.
Turning to `C[C@H]1CN(Cc2ccc(Cl)c(F)c2)CCN1C(=O)c1ccc(NS(=O)(=O)c2cccc3cccnc23)cc1Cl`, the activation at 1 µM at PKR wt is 1 to 100%; at PKR R510Q, 1 to 100%; at PKR T384W, 101 to 500%; on PKR R532W it was 101 to 500%.
For `C[C@@H]1CN(CC2CCC2)CCN1C(=O)c1ccc(NS(=O)(=O)c2cccc3cccnc23)cc1`, the activation at 1 µM at PKR wt was 101 to 500%; at PKR R510Q, 101 to 500%; at PKR T384W it was 1 to 100%; on PKR R532W it was 101 to 500%.
`CC(c1cc(F)cc(F)c1)N1CCN(C(=O)c2ccc(NS(=O)(=O)c3cccc4cccnc34)cc2)[C@H](C)C1` (stereo partly shown): the activation at 1 µM on PKR wt, at PKR R510Q, on PKR T384W and on PKR R532W was 101 to 500% in each case.
With `C[C@@H]1CN(C(=O)OC2CCCOC2)CCN1C(=O)c1ccc(NS(=O)(=O)c2cccc3cccnc23)cc1` (stereo partly shown), the activation at 1 µM on PKR wt, at PKR R510Q, at PKR T384W and at PKR R532W was 101 to 500% each time.
